# Source: patent publication US11746100B2 (GLOBAL BLOOD THERAPEUTICS, INC., priority 2020, dated 2023)
# Target: T1, human ferroportin (Homo sapiens, UniProt Q9NP59)
# T1 construct: luciferase reporter (read with the Nano-Glo Luciferase Assay System); expressed in transfected cells; host or cells: CHO cells, stably transfected, expression induced with doxycycline
# T1 sequence (Q9NP59 1-571): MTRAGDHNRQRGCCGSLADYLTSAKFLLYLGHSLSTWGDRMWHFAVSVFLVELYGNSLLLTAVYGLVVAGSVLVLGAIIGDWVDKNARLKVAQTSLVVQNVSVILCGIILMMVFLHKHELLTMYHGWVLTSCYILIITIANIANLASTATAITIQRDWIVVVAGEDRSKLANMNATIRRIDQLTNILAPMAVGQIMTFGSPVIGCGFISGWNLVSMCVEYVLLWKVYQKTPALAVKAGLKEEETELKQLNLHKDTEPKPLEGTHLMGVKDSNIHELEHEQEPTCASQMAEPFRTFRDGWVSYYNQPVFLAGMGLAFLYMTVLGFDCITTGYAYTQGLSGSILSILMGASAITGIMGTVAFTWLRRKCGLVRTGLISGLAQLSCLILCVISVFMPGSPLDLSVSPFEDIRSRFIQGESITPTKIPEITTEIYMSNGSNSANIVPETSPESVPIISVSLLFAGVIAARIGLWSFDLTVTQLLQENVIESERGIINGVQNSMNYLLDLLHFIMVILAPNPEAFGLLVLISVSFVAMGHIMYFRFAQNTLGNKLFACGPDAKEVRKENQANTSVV
# Assay: Biological in-vitro ferroportin internalization assay (luciferase reporter)
# Type: cell-based
# Conditions: average pEC50; stably-transfected CHO cell line expressing human ferroportin tagged to a luciferase reporter; 6 h incubation with test compound
# Procedure, shortened: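 Read-out is Nano-Glo luciferase signal after 6 h compound exposure, with average pEC50 derived. Cells are a stable CHO line carrying luciferase-tagged human ferroportin, pre-loaded 24 h with ferric ammonium citrate and doxycycline-induced for 24 h.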
row,SMILES,pEC50
1,"CN(C)CCOc1ccnc(-c2nc3c(c(N(C)CC(=O)NC(C)(C)C)n2)C(C)(C)CC3)c1 [Compound 413, N-tert-butyl-2-[(2-{4-[2-(dimethylamino)ethoxy]pyridin-2-yl}-5,5-dimethyl-5H,6H,7H-cyclopenta[d]pyrimidin-4-yl)(methyl)amino]acetamide]",8
2,"CN(CC(=O)NC(C)(C)C)c1nc(-c2cc(OC[C@@H]3COC(C)(C)O3)ccn2)nc2c1CCC2 [Compound 414, N-tert-butyl-2-{[2-(4-{[(4R)-2,2-dimethyl-1,3-dioxolan-4-yl]methoxy}pyridin-2-yl)-5H,6H,7H-cyclopenta[d]pyrimidin-4-yl](methyl)amino}acetamide]",8.3
3,"CN1CC(Oc2ccnc(-c3nc4c(c(N(C)CC(=O)NC(C)(C)C)n3)CCC4)c2)C1 [Compound 416, N-tert-butyl-2-[methyl(2-{4-[(1-methylazetidin-3-yl)oxy]pyridin-2-yl}-5H,6H,7H-cyclopenta[d]pyrimidin-4-yl)amino]acetamide]",8
4,"CN(C)CCOc1ccnc(-c2nc3c(c(N(C)CC(=O)N4CCCC4)n2)CCC3)c1 [Compound 417, 2-[(2-{4-[2-(dimethylamino)ethoxy]pyridin-2-yl}-5H,6H,7H-cyclopenta[d]pyrimidin-4-yl)(methyl)amino]-1-(pyrrolidin-1-yl)ethan-1-one]",7.1
5,"CN(C)CCOc1ccnc(-c2nc3c(c(N(C)CC(=O)NC4(C(F)(F)F)CC4)n2)CCC3)c1 [Compound 418, 2-[(2-{4-[2-(dimethylamino)ethoxy]pyridin-2-yl}-5H,6H,7H-cyclopenta[d]pyrimidin-4-yl)(methyl)amino]-N-[1-(trifluoromethyl)cyclopropyl]acetamide]",7.5
6,"CNCCOc1ccnc(-c2nc3c(c(N(C)CC(=O)NC(C)(C)C)n2)CCC3)c1 [Compound 419, N-tert-butyl-2-[methyl(2-{4-[2-(methylamino)ethoxy]pyridin-2-yl}-5H,6H,7H-cyclopenta[d]pyrimidin-4-yl)amino]acetamide]",7.6
7,"CN(CC(=O)N1CCCC1)c1nc(-c2cc(OCC(C)(C)O)ccn2)nc2c1CCC2 [Compound 420, 2-({2-[4-(2-hydroxy-2-methylpropoxy)pyridin-2-yl]-5H,6H,7H-cyclopenta[d]pyrimidin-4-yl}(methyl)amino)-1-(pyrrolidin-1-yl)ethan-1-one]",8
8,"CN(CC(=O)NC1CCCC1)c1nc(-c2cc(OCC(C)(C)O)ccn2)nc2c1CCC2 [Compound 421, N-cyclopentyl-2-({2-[4-(2-hydroxy-2-methylpropoxy)pyridin-2-yl]-5H,6H,7H-cyclopenta[d]pyrimidin-4-yl}(methyl)amino)acetamide]",8.2
9,"CN(CC(=O)N[C@@H]1CCOC1)c1nc(-c2cc(OCC(C)(C)O)ccn2)nc2c1CCC2 [Compound 422, 2-({2-[4-(2-hydroxy-2-methylpropoxy)pyridin-2-yl]-5H,6H,7H-cyclopenta[d]pyrimidin-4-yl}(methyl)amino)-N-[(3R)-oxolan-3-yl]acetamide]",7.4
10,"CN(CC(=O)NC1(C(F)(F)F)CC1)c1nc(-c2cc(OCC(C)(C)N(C)C)ccn2)nc2c1CCC2 [Compound 423, 2-[(2-{4-[2-(dimethylamino)-2-methylpropoxy]pyridin-2-yl}-5H,6H,7H-cyclopenta[d]pyrimidin-4-yl)(methyl)amino]-N-[1-(trifluoromethyl)cyclopropyl]acetamide]",7.7
11,"CN(C)CCOc1ccnc(-c2nc3c(c(N(C)CC(=O)N[C@@H]4CCOC4)n2)CCC3)c1 [Compound 424, 2-[(2-{4-[2-(dimethylamino)ethoxy]pyridin-2-yl}-5H,6H,7H-cyclopenta[d]pyrimidin-4-yl)(methyl)amino]-N-[(3R)-oxolan-3-yl]acetamide]",7
12,"CN(CC(=O)NC(C)(C)C)c1nc(-c2cc(OC(C)(C)CO)ccn2)nc2c1CCC2 [Compound 425, N-tert-butyl-2-[(2-{4-[(1-hydroxy-2-methylpropan-2-yl)oxy]pyridin-2-yl}-5H,6H,7H-cyclopenta[d]pyrimidin-4-yl)(methyl)amino]acetamide]",8.3

# Second part, the compound after the results:
row,pEC50,SMILES
1,8.4,"CN(CC(=O)NC(C)(C)C)c1nc(-c2cc(OCC(O)C(F)(F)F)ccn2)nc2c1CCC2 (stereo not drawn) [Compound 426, N-tert-butyl-2-[methyl({2-[4-(3,3,3-trifluoro-2-hydroxypropoxy)pyridin-2-yl]-5H,6H,7H-cyclopenta[d]pyrimidin-4-yl})amino]acetamide]"
2,7.6,"Cc1cc(OCCO)cc(-c2nc3c(c(N(C)CC(=O)NC(C)(C)C)n2)CCC3)n1 [Compound 427, N-tert-butyl-2-({2-[4-(2-hydroxyethoxy)-6-methylpyridin-2-yl]-5H,6H,7H-cyclopenta[d]pyrimidin-4-yl}(methyl)amino)acetamide]"
3,7.5,"CC(C)NC(=O)CN(C)c1nc(-c2cc(OCCN(C)C)ccn2)nc2c1CCC2 [Compound 428, 2-[(2-{4-[2-(dimethylamino)ethoxy]pyridin-2-yl}-5H,6H,7H-cyclopenta[d]pyrimidin-4-yl)(methyl)amino]-N-(propan-2-yl)acetamide]"
4,8,"CC(C)NC(=O)CN(C)c1nc(-c2cc(OCCN3CCCC3)ccn2)nc2c1CCC2 [Compound 429, 2-[methyl(2-{4-[2-(pyrrolidin-1-yl)ethoxy]pyridin-2-yl}-5H,6H,7H-cyclopenta[d]pyrimidin-4-yl)amino]-N-(propan-2-yl)acetamide]"
5,8,"CC(C)NC(=O)CN(C)c1nc(-c2cc(OCCN3CCOCC3)ccn2)nc2c1CCC2 [Compound 430, 2-[methyl(2-{4-[2-(morpholin-4-yl)ethoxy]pyridin-2-yl}-5H,6H,7H-cyclopenta[d]pyrimidin-4-yl)amino]-N-(propan-2-yl)acetamide]"
6,7.4,"CC(C)NC(=O)CN(C)c1nc(-c2cc(OCC3(O)CC3)ccn2)nc2c1CCC2 [Compound 431, 2-[(2-{4-[(1-hydroxycyclopropyl)methoxy]pyridin-2-yl}-5H,6H,7H-cyclopenta[d]pyrimidin-4-yl)(methyl)amino]-N-(propan-2-yl)acetamide]"
7,7.5,"CC(C)NC(=O)CN(C)c1nc(-c2cc(OCCN3CCN(C)CC3)ccn2)nc2c1CCC2 [Compound 432, 2-[methyl(2-{4-[2-(4-methylpiperazin-1-yl)ethoxy]pyridin-2-yl}-5H,6H,7H-cyclopenta[d]pyrimidin-4-yl)amino]-N-(propan-2-yl)acetamide]"
8,8.0,"CC(C)NC(=O)[C@@H](C)N(C)c1nc(-c2cc(OCCN(C)C)ccn2)nc2c1CCC2 [Compound 433, (2R)-2-[(2-{4-[2-(dimethylamino)ethoxy]pyridin-2-yl}-5H,6H,7H-cyclopenta[d]pyrimidin-4-yl)(methyl)amino]-N-(propan-2-yl)propanamide]"
9,7.4,"CC(C)NC(=O)[C@H](C)N(C)c1nc(-c2cc(OCCN(C)C)ccn2)nc2c1CCC2 [Compound 434, (2S)-2-[(2-{4-[2-(dimethylamino)ethoxy]pyridin-2-yl}-5H,6H,7H-cyclopenta[d]pyrimidin-4-yl)(methyl)amino]-N-(propan-2-yl)propanamide]"
10,7.8,"CC(C)NC(=O)CN(C)c1nc(-c2cc(OCCN(C)C)ccn2)nc2c1C(C)(C)CC2 [Compound 435, 2-[(2-{4-[2-(dimethylamino)ethoxy]pyridin-2-yl}-5,5-dimethyl-5H,6H,7H-cyclopenta[d]pyrimidin-4-yl)(methyl)amino]-N-(propan-2-yl)acetamide]"
11,7.3,"CC(C)NC(=O)CN(C)c1nc(-c2cc(OCCN3CCOCC3=O)ccn2)nc2c1CCC2 [Compound 436, 2-[methyl(2-{4-[2-(3-oxomorpholin-4-yl)ethoxy]pyridin-2-yl}-5H,6H,7H-cyclopenta[d]pyrimidin-4-yl)amino]-N-(propan-2-yl)acetamide]"
12,8.0,"CN1CC[C@@H](Oc2ccnc(-c3nc4c(c(N(C)CC(=O)NC(C)(C)C)n3)CCC4)c2)C1 [Compound 437, N-tert-butyl-2-{methyl[2-(4-{[(3R)-1-methylpyrrolidin-3-yl]oxy}pyridin-2-yl)-5H,6H,7H-cyclopenta[d]pyrimidin-4-yl]amino}acetamide]"
13,7.7,"CN1CC[C@H](Oc2ccnc(-c3nc4c(c(N(C)CC(=O)NC(C)(C)C)n3)CCC4)c2)C1 [Compound 438, N-tert-butyl-2-{methyl[2-(4-{[(3S)-1-methylpyrrolidin-3-yl]oxy}pyridin-2-yl)-5H,6H,7H-cyclopenta[d]pyrimidin-4-yl]amino}acetamide]"
14,7.8,"CC(C)NC(=O)CN(C)c1nc(-c2cc(OCC(C)(C)O)ccn2)nc2c1C(C)(C)CC2 [Compound 439, 2-({2-[4-(2-hydroxy-2-methylpropoxy)pyridin-2-yl]-5,5-dimethyl-5H,6H,7H-cyclopenta[d]pyrimidin-4-yl}(methyl)amino)-N-(propan-2-yl)acetamide]"
15,8,"Cc1cc(OCC(C)(C)O)cc(-c2nc3c(c(N(C)CC(=O)NC(C)(C)C)n2)CCC3)n1 [Compound 440, N-tert-butyl-2-({2-[4-(2-hydroxy-2-methylpropoxy)-6-methylpyridin-2-yl]-5H,6H,7H-cyclopenta[d]pyrimidin-4-yl}(methyl)amino)acetamide]"
